# Data taken from PubChem BioAssay AID2060886 (Molecular Pharmacology Branch, DTP, NCI, 2025).
# Test system: 653999-131-R-J2-PDC complex spheroids, growth inhibition
# Assay: Anticancer human tumor 653999-131-R-J2-PDC patient-derived lung adenocarcinoma cell line growth inhibition [RAS]
# Conditions: for IC50: curve of first compound; for viability, T/C: stronger effect = lower value
# Outline: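 Agents were tested in combination matrices in half-log decrements from a top concentration at or near clinical Cmax (10 microM if undetermined). Targets were multi-cell spheroids of tumour lines plus HUVEC and MSC stromal cells.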
# [1] = second compound 0.000949 µM, first compound 0.0316 µM
# [2] = second compound 0.000949 µM, first compound 0.1 µM
# [3] = second compound 0.000949 µM, first compound 0.316 µM
# [4] = second compound 0.000949 µM, first compound 1 µM
# [5] = second compound 0.003 µM, first compound 0.0316 µM
# [6] = second compound 0.003 µM, first compound 0.1 µM
# [7] = second compound 0.003 µM, first compound 0.316 µM
# [8] = second compound 0.003 µM, first compound 1 µM
# [9] = second compound 0.00949 µM, first compound 0.0316 µM
# [10] = second compound 0.00949 µM, first compound 0.1 µM
# [11] = second compound 0.00949 µM, first compound 0.316 µM
# [12] = second compound 0.00949 µM, first compound 1 µM
# [13] = second compound 0.03 µM, first compound 0.0316 µM
# [14] = second compound 0.03 µM, first compound 0.1 µM
# [15] = second compound 0.03 µM, first compound 0.316 µM
# [16] = second compound 0.03 µM, first compound 1 µM
# [17] = second compound 0.0949 µM, first compound 0.0316 µM
# [18] = second compound 0.0949 µM, first compound 0.1 µM
# [19] = second compound 0.0949 µM, first compound 0.316 µM
# [20] = second compound 0.0949 µM, first compound 1 µM
# [21] = second compound 0.3 µM, first compound 0.0316 µM
# [22] = second compound 0.3 µM, first compound 0.1 µM
# [23] = second compound 0.3 µM, first compound 0.316 µM
# [24] = second compound 0.3 µM, first compound 1 µM
# 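Note: spheroids exposed to the agents for seven days before the readout.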
smiles,measurement,setting,value
O=C(c1ccc(F)c(F)c1Nc1ccc(I)cc1F)N1CC(O)([C@@H]2CCCCN2)C1 + CCn1c(-c2cc(N3CCN(C)CC3)cnc2C(C)OC)c2c3cc(ccc31)-c1csc(n1)CC(NC(=O)C1CC1C)C(=O)N1CCCC(N1)C(=O)OCC(C)(C)C2,IC50,second compound 0.000949 µM,0.0431 µM
same,IC50,second compound 0.003 µM,0.018 µM
same,IC50,second compound 0.00949 µM,0.00757 µM
same,IC50,second compound 0.03 µM,< 0.00316 µM
same,IC50,second compound 0.0949 µM,< 0.00316 µM
same,IC50,second compound 0.3 µM,< 0.00316 µM
same,"viability, T/C","second compound 0.000949 µM, first compound 0.00316 µM",77.8%
same,"viability, T/C","second compound 0.000949 µM, first compound 0.01 µM",73.4%
same,"viability, T/C",[1],48.3%
same,"viability, T/C",[2],43.1%
same,"viability, T/C",[3],14.6%
same,"viability, T/C",[4],4.82%
same,"viability, T/C","second compound 0.003 µM, first compound 0.00316 µM",52.7%
same,"viability, T/C","second compound 0.003 µM, first compound 0.01 µM",54%
same,"viability, T/C",[5],45.5%
same,"viability, T/C",[6],34.8%
same,"viability, T/C",[7],12%
same,"viability, T/C",[8],4.41%
same,"viability, T/C","second compound 0.00949 µM, first compound 0.00316 µM",52.2%
same,"viability, T/C","second compound 0.00949 µM, first compound 0.01 µM",50.2%
same,"viability, T/C",[9],34.1%
same,"viability, T/C",[10],14.4%
same,"viability, T/C",[11],7.76%
same,"viability, T/C",[12],3.12%
same,"viability, T/C","second compound 0.03 µM, first compound 0.00316 µM",26.6%
same,"viability, T/C","second compound 0.03 µM, first compound 0.01 µM",16.9%
same,"viability, T/C",[13],15.1%
same,"viability, T/C",[14],9.74%
same,"viability, T/C",[15],4.27%
same,"viability, T/C",[16],3.44%
same,"viability, T/C","second compound 0.0949 µM, first compound 0.00316 µM",19.7%
same,"viability, T/C","second compound 0.0949 µM, first compound 0.01 µM",16.8%
same,"viability, T/C",[17],12.1%
same,"viability, T/C",[18],5.71%
same,"viability, T/C",[19],3.46%
same,"viability, T/C",[20],2.86%
same,"viability, T/C","second compound 0.3 µM, first compound 0.00316 µM",15.9%
same,"viability, T/C","second compound 0.3 µM, first compound 0.01 µM",15%
same,"viability, T/C",[21],10.6%
same,"viability, T/C",[22],4.53%
same,"viability, T/C",[23],4.09%
same,"viability, T/C",[24],1.86%
Cc1nc(N2CCC3(CC2)COC(C)C3N)c(CO)nc1Sc1ccnc(N)c1Cl (stereo unspecified) + C#Cc1c(F)ccc2cc(O)cc(-c3ncc4c(N5CC6CCC(C5)N6)nc(OCC56CCCN5CC(F)C6)nc4c3F)c12,IC50,second compound 0.0316 µM,> 10 µM
same,IC50,second compound 0.1 µM,> 10 µM
same,IC50,second compound 0.316 µM,> 10 µM
same,IC50,second compound 1 µM,0.193 µM
same,IC50,second compound 3.16 µM,< 0.0316 µM
same,IC50,second compound 10 µM,< 0.0316 µM
same,"viability, T/C","second compound 0.0316 µM, first compound 0.0316 µM",89.8%
same,"viability, T/C","second compound 0.0316 µM, first compound 0.1 µM",88.9%
same,"viability, T/C","second compound 0.0316 µM, first compound 0.316 µM",74.5%
same,"viability, T/C","second compound 0.0316 µM, first compound 1 µM",69.2%
same,"viability, T/C","second compound 0.0316 µM, first compound 3.16 µM",73.2%
same,"viability, T/C","second compound 0.0316 µM, first compound 10 µM",76.2%
same,"viability, T/C","second compound 0.1 µM, first compound 0.0316 µM",65.3%
same,"viability, T/C","second compound 0.1 µM, first compound 0.1 µM",62.1%
same,"viability, T/C","second compound 0.1 µM, first compound 0.316 µM",66%
same,"viability, T/C","second compound 0.1 µM, first compound 1 µM",60%
same,"viability, T/C","second compound 0.1 µM, first compound 3.16 µM",64.3%
same,"viability, T/C","second compound 0.1 µM, first compound 10 µM",55.2%
same,"viability, T/C","second compound 0.316 µM, first compound 0.0316 µM",68.4%
same,"viability, T/C","second compound 0.316 µM, first compound 0.1 µM",52.6%
same,"viability, T/C","second compound 0.316 µM, first compound 0.316 µM",50.5%
same,"viability, T/C","second compound 0.316 µM, first compound 1 µM",45.9%
same,"viability, T/C","second compound 0.316 µM, first compound 3.16 µM",74.5%
same,"viability, T/C","second compound 0.316 µM, first compound 10 µM",47.9%
same,"viability, T/C","second compound 1 µM, first compound 0.0316 µM",61.8%
same,"viability, T/C","second compound 1 µM, first compound 0.1 µM",52.9%
same,"viability, T/C","second compound 1 µM, first compound 0.316 µM",48.5%
same,"viability, T/C","second compound 1 µM, first compound 1 µM",41.1%
same,"viability, T/C","second compound 1 µM, first compound 3.16 µM",30.5%
same,"viability, T/C","second compound 1 µM, first compound 10 µM",30.2%
same,"viability, T/C","second compound 3.16 µM, first compound 0.0316 µM",41.9%
same,"viability, T/C","second compound 3.16 µM, first compound 0.1 µM",35.4%
same,"viability, T/C","second compound 3.16 µM, first compound 0.316 µM",32.2%
same,"viability, T/C","second compound 3.16 µM, first compound 1 µM",21.8%
same,"viability, T/C","second compound 3.16 µM, first compound 3.16 µM",17.3%
same,"viability, T/C","second compound 3.16 µM, first compound 10 µM",20.2%
same,"viability, T/C","second compound 10 µM, first compound 0.0316 µM",27%
same,"viability, T/C","second compound 10 µM, first compound 0.1 µM",13.9%
same,"viability, T/C","second compound 10 µM, first compound 0.316 µM",18.9%
same,"viability, T/C","second compound 10 µM, first compound 1 µM",11%
same,"viability, T/C","second compound 10 µM, first compound 3.16 µM",8.6%
same,"viability, T/C","second compound 10 µM, first compound 10 µM",9.77%
CCC(CC)c1cc(NC2CCC(N)C2)n2nccc2n1 (stereo unspecified) + CCn1c(-c2cccnc2C(C)OC)c2c3cc(ccc31)N1CCOC(CC(NC(=O)C(C(C)C)N(C)C(=O)C3(F)CCN(C(=O)C#CC(C)(C)N(C)C)CC3)C(=O)N3CCCC(N3)C(=O)OCC(C)(C)C2)C1,IC50,second compound 0.000949 µM,2.01 µM
same,IC50,second compound 0.003 µM,1.98 µM
same,IC50,second compound 0.00949 µM,1.94 µM
same,IC50,second compound 0.03 µM,2.09 µM
same,IC50,second compound 0.0949 µM,1.84 µM
same,IC50,second compound 0.3 µM,1.91 µM
same,"viability, T/C",[1],101%
same,"viability, T/C",[2],99.6%
same,"viability, T/C",[3],102%
same,"viability, T/C",[4],98.6%
same,"viability, T/C","second compound 0.000949 µM, first compound 3.16 µM",15%
same,"viability, T/C","second compound 0.000949 µM, first compound 10 µM",22.1%
same,"viability, T/C",[5],111%
same,"viability, T/C",[6],107%
same,"viability, T/C",[7],106%
same,"viability, T/C",[8],95.9%
same,"viability, T/C","second compound 0.003 µM, first compound 3.16 µM",17.7%
same,"viability, T/C","second compound 0.003 µM, first compound 10 µM",18.7%
same,"viability, T/C",[9],102%
same,"viability, T/C",[10],114%
same,"viability, T/C",[11],106%
same,"viability, T/C",[12],93%
same,"viability, T/C","second compound 0.00949 µM, first compound 3.16 µM",14.4%
same,"viability, T/C","second compound 0.00949 µM, first compound 10 µM",22.5%
same,"viability, T/C",[13],96%
same,"viability, T/C",[14],107%
same,"viability, T/C",[15],114%
same,"viability, T/C",[16],112%
same,"viability, T/C","second compound 0.03 µM, first compound 3.16 µM",17%
same,"viability, T/C","second compound 0.03 µM, first compound 10 µM",19.1%
same,"viability, T/C",[17],97.5%
same,"viability, T/C",[18],115%
same,"viability, T/C",[19],121%
same,"viability, T/C",[20],88.5%
same,"viability, T/C","second compound 0.0949 µM, first compound 3.16 µM",12%
same,"viability, T/C","second compound 0.0949 µM, first compound 10 µM",20%
same,"viability, T/C",[21],92.1%
same,"viability, T/C",[22],97.6%
same,"viability, T/C",[23],108%
same,"viability, T/C",[24],92.1%
same,"viability, T/C","second compound 0.3 µM, first compound 3.16 µM",13.7%
same,"viability, T/C","second compound 0.3 µM, first compound 10 µM",20.5%
